# Earlier results, collected in patent US20260248729A1, “NOVEL ORAL DOSAGE FORM” (Neon Healthcare Ltd, priority 2022, published 2026).
# [1] = administered orally in the form of phenelzine sulfate
smiles,measurement,setting,value
"NNCCc1ccccc1 [Phenelzine, 2-phenylethylhydrazine]",Time to peak plasma concentration,[1],43 min
same,half-life,[1],11.6 h
same,"major metabolites phenylacetic acid and parahydroxyphenylacetic acid recovered, of the excreted dose of phenelzine in the urine",over the course of 96 hours after single doses,about 73%
